Series [1] deals with PDE in tissue homogenate from tobacco hornworm nerve cord. As to the kind of experiment: Cyclic AMP analogue remaining after incubation with nerve cord homogenate. The note with it: IBMX 0.1 mM; 4 hours in vitro; FIG. 20. The class given is in vitro ADME, tobacco hornworm (Manducca sexta). As for the experimental part: It has been previously shown, above, that PDE inhibition can increase the concentration of cyclic AMP in insect tissue. […] In order to do this, a fixed amount of butyl-benzylthio cyclic AMP was incubated in vitro for 4 hours in the presence of a tissue homogenate from tobacco hornworm nerve cord. In some tubes, IBMX (0.1 mM) was added to inhibit PDE. After the incubation, the amount of butyl-benzylthio cyclic AMP remaining was measured by protein binding assay (Brown et al., supra), using a standard curve based upon butyl-benzylthio cyclic AMP.

Series [2] deals with tobacco hornworms (Manducca sexta). As to the kind of experiment: In vivo leaf test (feeding on sprayed tomato leaves).
Series [3] concerns Firefly phosphodiesterase enzyme. Description: PDE inhibitory activity, firefly lantern. The class given is biochemical, firefly (Photinus pyralis). The conditions noted are these: for phosphodiesterase inhibition: FIG. 6. The text has this: (§1) The ability of any compound (A) to inhibit phosphodiesterase (PDE) activity in broken cell preparations of firefly lantern or in pest tissues can be determined either (1) by measuring the decrease in rate of hydrolysis of an added amount of cyclic AMP by PDE (see Methods Section of Nathanson et al., Mol. Pharmacol. 12:390-398 (1975)), or (2) by measuring the rate of accumulation of one of the breakdown products of cyclic AMP, such as 5'-AMP or adenosine (see method of Filburn et al., Anal. Biochem. 52:505-516 (1973)). Both of these are herein incorporated by reference.
Generally, any compound capable of maximally inhibiting PDE activity by at least 50% (Vmax -inhibition) and preferably by at least 80% is preferred. Also, in terms of the concentration of the compound required for such inhibition, this can be quantitated by determining the IC 50-inhibition, i.e., the concentration of the compound required to cause 50% of the maximal inhibitioncaused by the compound at any concentration.
(§2) In this assay (modified slightly from Filburn and Karn (Analyt. Biochem. 52: 505-516 (1973)), the rate of hydrolysis of labeled cyclic AMP to 5'-AMP by PDE is measured by converting the breakdown product (5'-AMP) to adenosine, which can be separated and measured by alumina chromatography. Specifically, tissue from either the firefly lantern or pest is homogenized (10-20 mg/ml) in 6 mM Tris-maleate buffer, pH 7.4. The hydrolysis reaction is run in test tubes containing (in 100 microliters): 80 mM Tris maleate, pH 7.4; 6 mM MgSO4; 10 pmoles tritiated cyclic AMP (2×10^4 to 2×10^5 cpm, depending upon the activity of the enzyme); 20 microliters of tissue homogenate; and various concentrations of the compound to be tested. In those cases in which the compound is insoluble in aqueous solution at pH 7.4, pH can be varied between pH 6.5 and 9.0 for optimization of solubility. In addition, the test compound can be initially solubilized in either 100% methanol or DMSO and diluted to a final concentration of 10% methanol or DMSO in the assay (in which case solvent controls are run in parallel).
The reaction is started by the addition of homogenate, run for 4 min at 37° C., and terminated by boiling for 90 sec. The 5'AMP formed is then converted to adenosine by the addition of 20 microliters of an aqueous solution of 0.5 Units/ml of 5'-nucleotidase (Sigma, Grade IV), vortexed, and incubated for 30 minutes at 37° C. The second reaction is stopped by addition of 0.4 ml of 0.1N ammonium acetate, pH 4.0. The entire sample is then applied to a 0.5×8 cm column containing neutral alumina prewashed with 20 ml of 0.1N ammonium acetate, pH 4.0. The void volume is discarded and the column is then eluted with 2 ml of 0.1N ammonium acetate, pH 4.0, the eluent collected and counted by liquid scintillation spectrometry. Activity is cpms above that due to a blank which was initially incubated for 0 seconds in the first reaction.

Series [4] relates to phosphodiesterase enzyme of hornworm nerve cord. As to the kind of experiment: PDE inhibitory activity, hornworm nerve tissue. The class given is biochemical, tobacco hornworm (Manducca sexta). The conditions noted are these: FIG. 8.
Text: as §1, §2
The reaction is started by the addition of homogenate, run for 4 min at 37° C., and terminated by boiling for 90 sec. […] The void volume is discarded and the column is then eluted with 2 ml of 0.1N ammonium acetate, pH 4.0, the eluent collected and counted by liquid scintillation spectrometry. […]

The nature of series [5]: Level of PDE inhibitor compound in insects in vivo. Also noted: species or system tobacco hornworms. The note with it: feeding 72 hours on tomato leaves treated with a 1% spray of theophylline; read-out: internal concentration within the insects. The method, then:
To determine this, tobacco hornworms were allowed to feed on tomato leaves treated with a 1% spray of theophylline. This concentration was chosen since it is an amount which, by itself, inhibits feeding in the tobacco hornworm (see FIG. 13). After 72 hours, worms (alive or dead) were removed, quickly rinsed of any compound adhering to their outside cuticle, and then homogenized. The homogenate was centrifuged at 2000×g for 5 minutes and the supernatant was assayed for theophylline concentration by a standard immunoenzymatic procedure (Emit-aad® Theophylline Assay, Syva Company, Palo Alto, Calif.). By this procedure, the internal concentration within the insects was determined to be 4.0 mM. From FIGS. 6,7 or 8 it will be seen that this concentration of theophylline is sufficient to cause at least 70% inhibition of PDE enzyme activity in vitro. The correspondence between in vitro and in vivo results is remarkably close and serves to further support the invention.

Series [6] deals with cyclic AMP content of intact nerve cords of tobacco hornworms. As to the kind of experiment: Cyclic AMP content of intact nerve cords incubated in vitro. Format: cell-based, tobacco hornworm (Manducca sexta). The conditions noted are these: 100 micromoles/liter of IBMX, 5 minutes in vitro; without PDE inhibitor 8.9±1.6.
Series [7] has as its system Manducca eggs. Description: Ovacidal test (eggs dipped in drug solutions). Format: in vivo, Manducca sexta. The conditions noted are these: IBMX 0.1 g/100 ml alone (C* = no agonist); control without IBMX 80. The method, then:
In some cases, test agents were tested for ovacidal activity by dipping groups of 10-50 Manducca eggs in drug solutions for 60 seconds and then determining the percentage of eggs which produced viable larvae. A compound or synergist with active ovacidal activity was one which decreased the percentage of eggs hatched, relative to control.

Here are results for three compounds from patent US4902690A, “Pest controlling compositions” (The General Hospital Corporation, priority 1988, dated 1990).

Regarding `CCCCNc1ncnc2c1nc(SCc1ccccc1)n2[C@@H]1O[C@@H]2COP(=O)(O)O[C@H]2[C@H]1O` [n-butylaminobenzylthio cyclic AMP, 6-n-butylamino-8-benzylthio-cyclic AMP], the “amount of butyl-benzylthio cyclic AMP present after 4 hours, effect of addition of IBMX” value in series [1] is on record as “more than doubled”. In series [2] (concentration of 1%, FIGS. 18, 19), the “antifeeding activity in the absence of IBMX” value was “some antifeeding activity”.
For the compound `Cn1c(=O)c2[nH]cnc2n(C)c1=O` [theophylline], the “phosphodiesterase inhibition” value in series [3] is recorded as “active as phosphodiesterase inhibitors”. For the same compound, the “inhibition of PDE enzyme activity in vitro” value in series [3] (theophylline 4.0 mM, read from FIGS. 6,7 or 8 (firefly or hornworm)) is recorded as “at least 70%”. Moreover, the “pattern of PDE inhibition” value in series [4] was “quite similar to that in the firefly light organ”. Also, the concentration in series [5] is 4000 µM. In series [2] (1% Theophylline alone), the “% Leaf Remaining (increase over control)” value is on record as 11%.
Regarding `CC(C)Cn1c(=O)n(C)c(=O)c2[nH]cnc21` [IBMX, isobutylmethylxanthine], the “phosphodiesterase inhibition” value in series [3] was “more potent inhibitor of the enzyme”. The “pattern of PDE inhibition” value in series [4] is “quite similar to that in the firefly light organ”. For the same compound, the “cyclic AMP content of hornworm nerve cord” value in series [6] was 21.4 ± 0.8 pmol/mg. In series [7], the “% Living Larvae” value came out at 90%. In series [2] (0.1% of each compound, FIG. 11), the “state of the leaf 72 hours after treatment” value is on record as “almost entirely consumed”. Also, the “IBMX concentrations at which IBMX itself acted to inhibit feeding” value in series [2] (FIG. 12) is 0.4-5 gm/b 100 ml. For the same compound, in series [2] (FIG. 12, DDCDM 0.1%), the “IBMX concentrations with no effect by itself and no increase of DDCDM activity” value was “less than 0.001 gm/100 ml”. In addition, the “relative antifeeding potency” value in series [2] (FIG. 13, dose sprayed on tomato leaves) is “more potent than theophylline”. Besides, the “antifeeding activity of the compound by itself” value in series [2] (FIGS. 10, 13, 17, Table 8) is “very small inhibitory effect by itself”.
